{"source": "patent US10251889B2", "about": "“Substituted pyrazolo[1,5-a]pyrimidine compounds as Trk kinase inhibitors” (Array BioPharma, Inc., priority 2009, dated 2019)"}
{"biological_target": "Jak2 (human Jak2 kinase domain, amino acids 808-1132) (Homo sapiens (Human), UniProt O60674)", "sequence (O60674 808-1132)": "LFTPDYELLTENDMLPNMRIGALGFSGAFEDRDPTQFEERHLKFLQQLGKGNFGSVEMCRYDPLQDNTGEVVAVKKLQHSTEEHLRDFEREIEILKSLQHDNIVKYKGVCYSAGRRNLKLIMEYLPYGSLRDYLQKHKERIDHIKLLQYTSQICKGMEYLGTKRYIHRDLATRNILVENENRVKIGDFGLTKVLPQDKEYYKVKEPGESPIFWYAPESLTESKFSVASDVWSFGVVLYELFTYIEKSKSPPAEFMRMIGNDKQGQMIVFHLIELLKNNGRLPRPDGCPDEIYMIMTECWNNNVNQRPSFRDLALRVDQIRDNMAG", "assay": "Jak2 inhibition assay (Omnia kinase assay)", "type": "biochemical", "settings": "read-out: Jak2 Enzyme (% inhibition at 1000 nM), Table 1; 1000 nM test compound", "description": "The assays described in Examples C, D, E and F for the determination of JAK1, JAK2, JAK3 and Tyk2 kinase activity, respectively, utilized the Omnia® Kinase fluorescence peptide substrate-based technology (Invitrogen). […] The reactions were therefore read at excitation 360 nm and emission was measured at 485 nm every 50 seconds for 45 minutes using a PerkinElmer EnVision Multilabel Plate Reader.\nThe final buffer conditions for each of the JAK1, JAK2, JAK3 and Tyk2 assays were as follows: 25 mM HEPES, pH 7.4, 10 mM MgCl2, 0.01% Triton X-100 and 1 mM DTT.\nTwo-μL aliquots of these were transferred to a fresh plate for a ten-fold intermediate dilution with assay buffer. Five-μL aliquots of the diluted compounds were then transferred to 20-μL of assay mixtures described in Examples C, D, E and F for a final concentration of DMSO of 2%. […] For each plate, percent of control (POC) values were calculated for each well according to the following equation:\nwhere Xmax=Average Uninhibited Controls • Xmin=Average Background IC50's were estimated from the POC's using a standard 4-parameter logistic model:\nwhere A=Minimum Y (Bottom Asymptote) • B=Maximum Y (Top Asymptote) • C=EC50 • D=Slope Factor • X=Compound Concentration (nM) • Y=POC\nThe IC50 is defined as the concentration of inhibitor at which the POC equals 50 for the fitted curve.\nCompounds of Formula I were screened for their ability to inhibit Jak2 using the general enzyme inhibition assay method, in which the assay mixture contained 500 μM ATP, 10 μM Omnia® Y7 peptide (Catalog # IVGN KNZ3071C, Invitrogen Corporation, Carlsbad, Calif.) and 4 nM Jak2 in a total volume of 20 μL. Human Jak2 kinase domain comprising amino acids 808-1132 was purchased from Invitrogen Corporation, Carlsbad, Calif. (catalog # IVGN PV4210).", "units": {"inhibition at 1 µM": "%"}}
{"compound": "Cc1ccc(CNC(=O)c2cnn3ccc(N4CCC[C@@H]4c4cc(F)ccc4F)nc23)o1", "note": "[Example 5, (R)-5-(2-(2,5-difluorophenyl)pyrrolidin-1-yl)-N-((5-methylfuran-2-yl)methyl)pyrazolo[1,5-a]pyrimidine-3-carboxamide]", "inhibition at 1 µM": 14.2}
{"compound": "CONC(=O)c1cnn2ccc(N3CCC[C@@H]3c3cc(F)ccc3F)nc12", "note": "[Example 65, (R)-5-(2-(2,5-difluorophenyl)pyrrolidin-1-yl)-N-methoxypyrazolo[1,5-a]pyrimidine-3-carboxamide]", "inhibition at 1 µM": 34.1}
{"compound": "O=C(c1cnn2ccc(N3CCC[C@@H]3c3cncc(F)c3)nc12)N1CC[C@H](O)C1", "note": "[Example 128, (5-((R)-2-(5-fluoropyridin-3-yl)pyrrolidin-1-yl)pyrazolo[1,5-a]pyrimidin-3-yl)((S)-3-hydroxypyrrolidin-1-yl)methanone]", "inhibition at 1 µM": 1.2}
{"compound": "CNC(=O)c1cnn2ccc(N3C[C@@H](O)C[C@@H]3c3cccc(F)c3)nc12", "note": "[Example 218, 5-((2R,4S)-2-(3-fluorophenyl)-4-hydroxypyrrolidin-1-yl)-N-methylpyrazolo[1,5-a]pyrimidine-3-carboxamide]", "inhibition at 1 µM": 24.6}
{"compound": "COc1ccc(F)cc1[C@H]1CCCN1c1ccn2ncc(C(=O)NC[C@@H](O)CO)c2n1", "note": "[Example 56, N—((R)-2,3-dihydroxypropyl)-5-((R)-2-(5-fluoro-2-methoxyphenyl)pyrrolidin-1-yl)pyrazolo[1,5-a]pyrimidine-3-carboxamide]", "inhibition at 1 µM": 28}
{"compound": "O=C(c1cnn2ccc(N3CCC[C@@H]3c3cncc(F)c3)nc12)N1CCCC1", "note": "[Example 94, (R)-(5-(2-(5-fluoropyridin-3-yl)pyrrolidin-1-yl)pyrazolo[1,5-a]pyrimidin-3-yl)(pyrrolidin-1-yl)methanone]", "inhibition at 1 µM": 4.4}
{"compound": "CC(C)(CN1CCOCC1)NC(=O)c1cnn2ccc(N3CCC[C@@H]3c3cc(F)ccc3F)nc12", "note": "[Example 9, (R)-5-(2-(2,5-difluorophenyl)pyrrolidin-1-yl)-N-(2-methyl-1-morpholinopropan-2-yl)pyrazolo[1,5-a]pyrimidine-3-carboxamide]", "inhibition at 1 µM": 4.6}
{"compound": "NC(=O)c1cnn2ccc(N3CCC[C@@H]3c3cc(F)cc(OCCN4CCOCC4)c3)nc12", "note": "[Example 76, (R)-5-(2-(3-fluoro-5-(2-morpholinoethoxy)phenyl)pyrrolidin-1-yl)pyrazolo[1,5-a]pyrimidine-3-carboxamide]", "inhibition at 1 µM": 4.8}
{"compound": "CC(C)(C)NC(=O)c1cnn2ccc(N3C[C@H](O)C[C@@H]3c3cccc(F)c3)nc12", "note": "[Example 42, N-tert-butyl-5-((2R,4R)-2-(3-fluorophenyl)-4-hydroxypyrrolidin-1-yl)pyrazolo[1,5-a]pyrimidine-3-carboxamide]", "inhibition at 1 µM": 7.7}
{"compound": "CC(C)(CO)NC(=O)c1cnn2ccc(N3CCC[C@@H]3c3cncc(F)c3)nc12", "note": "[Example 132]", "inhibition at 1 µM": 3.7}
{"compound": "CC1(C)CC[C@H](c2cc(F)ccc2F)N1c1ccn2ncc(C(=O)NC3CC3)c2n1", "note": "[Example 68, (R)—N-cyclopropyl-5-(5-(2,5-difluorophenyl)-2,2-dimethylpyrrolidin-1-yl)pyrazolo[1,5-a]pyrimidine-3-carboxamide]", "inhibition at 1 µM": 23}
{"compound": "Cc1ncc(F)cc1[C@H]1CCCN1c1ccn2ncc(C(=O)N3CC(O)C3)c2n1", "note": "[Example 192, (R)-(5-(2-(5-fluoro-2-methylpyridin-3-yl)pyrrolidin-1-yl)pyrazolo[1,5-a]pyrimidin-3-yl)(3-hydroxyazetidin-1-yl)methanone]", "inhibition at 1 µM": 0.3}
{"compound": "CC1(C)OCC(COc2ccc(F)cc2[C@H]2CCCN2c2ccn3ncc(C(=O)NC4CC4)c3n2)O1", "note": "(stereo partly drawn) [Example 204, N-cyclopropyl-5-((2R)-2-(2-((2,2-dimethyl-1,3-dioxolan-4-yl)methoxy)-5-fluorophenyl)pyrrolidin-1-yl)pyrazolo[1,5-a]pyrimidine-3-carboxamide]", "inhibition at 1 µM": 37}
{"compound": "CC(C)(C)[C@@H](CO)NC(=O)c1cnn2ccc(N3CCC[C@@H]3c3cc(F)ccc3F)nc12", "note": "[Example 180, 5-((R)-2-(2,5-difluorophenyl)pyrrolidin-1-yl)-N-((S)-1-hydroxy-3,3-dimethylbutan-2-yl)pyrazolo[1,5-a]pyrimidine-3-carboxamide]", "inhibition at 1 µM": -0.8}
{"compound": "COc1ncc(F)cc1[C@H]1CCCN1c1ccn2ncc(C(=O)NC3CCN(S(C)(=O)=O)CC3)c2n1", "note": "[Example 162, (R)-5-(2-(5-fluoro-2-methoxypyridin-3-yl)pyrrolidin-1-yl)-N-(1-(methylsulfonyl)piperidin-4-yl)pyrazolo[1,5-a]pyrimidine-3-carboxamide]", "inhibition at 1 µM": 66.2}
{"compound": "CC1(C)CC[C@H](c2cc(F)ccc2F)N1c1ccn2ncc(C(N)=O)c2n1", "note": "[Example 67, (R)-5-(5-(2,5-difluorophenyl)-2,2-dimethylpyrrolidin-1-yl)pyrazolo[1,5-a]pyrimidine-3-carboxamide]", "inhibition at 1 µM": 22.3}
{"compound": "O=C(O)CC1CCN(C(=O)c2cnn3ccc(N4CCC[C@@H]4c4cc(F)ccc4F)nc23)CC1", "note": "[Example 12, (R)-2-(1-(5-(2-(2,5-difluorophenyl)pyrrolidin-1-yl)pyrazolo[1,5-a]pyrimidine-3-carbonyl)piperidin-4-yl)acetic Acid]", "inhibition at 1 µM": 4.5}
{"compound": "CS(=O)(=O)N1CCC(NC(=O)c2cnn3ccc(N4CCC[C@@H]4c4cc(F)ccc4F)nc23)CC1", "note": "[Example 44, (R)-5-(2-(2,5-difluorophenyl)pyrrolidin-1-yl)-N-(1-(methylsulfonyl)piperidin-4-yl)pyrazolo[1,5-a]pyrimidine-3-carboxamide]", "inhibition at 1 µM": 71.5}
{"compound": "Cc1ncc(F)cc1[C@H]1CCCN1c1ccn2ncc(C(=O)NCCO)c2n1", "note": "[Example 188, (R)-5-(2-(5-fluoro-2-methylpyridin-3-yl)pyrrolidin-1-yl)-N-(2-hydroxyethyl)pyrazolo[1,5-a]pyrimidine-3-carboxamide]", "inhibition at 1 µM": 9.3}
{"compound": "O=C(NC1CCOCC1)c1cnn2ccc(N3CCC[C@@H]3c3cc(F)ccc3F)nc12", "note": "[Example 20, (R)-5-(2-(2,5-difluorophenyl)pyrrolidin-1-yl)-N-(tetrahydro-2H-pyran-4-yl)pyrazolo[1,5-a]pyrimidine-3-carboxamide]", "inhibition at 1 µM": 78.9}
{"compound": "CC1(NC(=O)c2cnn3ccc(N4[C@H](CO)CC[C@@H]4c4cncc(F)c4)nc23)CC1", "note": "[Example 214, 5-((2R,5S)-2-(5-fluoropyridin-3-yl)-5-(hydroxymethyl)pyrrolidin-1-yl)-N-(1-methylcyclopropyl)pyrazolo[1,5-a]pyrimidine-3-carboxamide]", "inhibition at 1 µM": 29.7}
{"compound": "COc1ncc(F)cc1[C@H]1CCCN1c1ccn2ncc(C(=O)NC(C)(C)C)c2n1", "note": "[Example 80, (R)—N-tert-butyl-5-(2-(5-fluoro-2-methoxypyridin-3-yl)pyrrolidin-1-yl)pyrazolo[1,5-a]pyrimidine-3-carboxamide]", "inhibition at 1 µM": 50.7}
{"compound": "COCC(O)CNC(=O)c1cnn2ccc(N3CCCC3c3cncc(F)c3)nc12", "note": "[Example 119, 5-((R)-2-(5-fluoropyridin-3-yl)pyrrolidin-1-yl)-N-(2-hydroxy-3-methoxypropyl)pyrazolo[1,5-a]pyrimidine-3-carboxamide]", "inhibition at 1 µM": 1.7}
{"compound": "COCCNC(=O)c1cnn2ccc(N3CCC[C@@H]3c3cc(F)ccc3F)nc12", "note": "[Example 172, 5-((R)-2-(2,5-difluorophenyl)pyrrolidin-1-yl)-N-(2-methoxyethyl)pyrazolo[1,5-a]pyrimidine-3-carboxamide]", "inhibition at 1 µM": 11}
{"compound": "N#CCNC(=O)c1cnn2ccc(N3CCC[C@@H]3c3cc(F)ccc3F)nc12", "note": "[Example 39, (R)—N-(cyanomethyl)-5-(2-(2,5-difluorophenyl)pyrrolidin-1-yl)pyrazolo[1,5-a]pyrimidine-3-carboxamide]", "inhibition at 1 µM": 30.4}
{"compound": "C[C@H](O)[C@@H](CO)NC(=O)c1cnn2ccc(N3CCC[C@@H]3c3cc(F)ccc3F)nc12", "note": "[Example 176, 5-((R)-2-(2,5-difluorophenyl)pyrrolidin-1-yl)-N-((2R,3S)-1,3-dihydroxybutan-2-yl)pyrazolo[1,5-a]pyrimidine-3-carboxamide]", "inhibition at 1 µM": 6.3}
{"compound": "NC(=O)c1cnn2ccc(N3CCC[C@@H]3c3cc(F)ccc3OCCN3CCOCC3)nc12", "note": "[Example 86, (R)-5-(2-(5-fluoro-2-(2-morpholinoethoxy)phenyl)pyrrolidin-1-yl)pyrazolo[1,5-a]pyrimidine-3-carboxamide]", "inhibition at 1 µM": 17.3}
{"compound": "Cn1cc(F)cc([C@H]2CCCN2c2ccn3ncc(C(=O)NC4(C)CC4)c3n2)c1=O", "note": "[Example 237, (R)-5-(2-(5-fluoro-1-methyl-2-oxo-1,2-dihydropyridin-3-yl)pyrrolidin-1-yl)-N-(1-methylcyclopropyl)pyrazolo[1,5-a]pyrimidine-3-carboxamide]", "inhibition at 1 µM": 51.9}
{"compound": "CC(C)(CF)NC(=O)c1cnn2ccc(N3CCC[C@@H]3c3cc(F)ccc3F)nc12", "note": "[Example 40, (R)-5-(2-(2,5-difluorophenyl)pyrrolidin-1-yl)-N-(1-fluoro-2-methylpropan-2-yl)pyrazolo[1,5-a]pyrimidine-3-carboxamide]", "inhibition at 1 µM": 41.4}
